Assay results from publication PMC8301776, “New Hybrid Compounds Combining Fragments of Usnic Acid and Monoterpenoids for Effective Tyrosyl-DNA Phosphodiesterase 1 Inhibition” (Biomolecules, 2021).
Where two headings read alike, the source gives them in different places.

Experiments:
[1] = target: T1, TDP1 (Homo sapiens, UniProt Q9NUW8); assay: Real-time fluorescence detection of TDP1 activity (FAM/BHQ1 oligonucleotide biosensor); type: biochemical
T1 construct: made in house; host or cells: E. coli
T1 sequence (Q9NUW8 whole entry): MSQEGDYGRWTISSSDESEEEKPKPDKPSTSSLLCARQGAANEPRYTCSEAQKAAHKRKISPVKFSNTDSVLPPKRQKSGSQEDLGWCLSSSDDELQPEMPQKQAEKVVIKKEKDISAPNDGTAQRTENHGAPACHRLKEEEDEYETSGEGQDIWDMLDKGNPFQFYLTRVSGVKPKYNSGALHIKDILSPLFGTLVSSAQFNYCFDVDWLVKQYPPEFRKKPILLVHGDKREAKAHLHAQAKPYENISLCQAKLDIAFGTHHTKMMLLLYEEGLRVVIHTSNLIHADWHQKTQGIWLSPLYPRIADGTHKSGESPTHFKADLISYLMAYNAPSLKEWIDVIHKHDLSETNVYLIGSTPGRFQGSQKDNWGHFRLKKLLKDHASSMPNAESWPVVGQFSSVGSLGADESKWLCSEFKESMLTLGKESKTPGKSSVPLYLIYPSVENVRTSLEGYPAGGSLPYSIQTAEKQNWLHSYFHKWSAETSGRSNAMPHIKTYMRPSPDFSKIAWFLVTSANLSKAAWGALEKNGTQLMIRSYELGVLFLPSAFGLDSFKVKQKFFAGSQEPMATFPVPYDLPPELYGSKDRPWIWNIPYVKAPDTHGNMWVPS

[2] = tested on: HeLa cells; assay: Intrinsic cytotoxicity, EZ4U colorimetric test, HeLa; type: cell-based, human; conditions: Figure 6
Description: (§1) Cytotoxicity of the compounds was examined against human cell lines HEK293A (human embryonic kidney)—WT and TDP1-deficient (Tdp1-/-), and HeLa (cervical cancer) using an EZ4U colorimetric tests (Biomedica, Vienna, Austria) or xCELLigence DP Real-Time Cell Analyzer (ACEA Biosciences, Santa Clara, CA, USA). Cell lines were obtained from the Russian Cell Culture Collection (RCCC) Institute of Cytology RAS (St. Petersburg, Russia). The cells were grown in DMEM/F12 medium (Thermo Fisher Scientific, Waltham, MA, USA), with 1× GlutaMAX (Thermo Fisher Scientific, Waltham, MA, USA), 50 IU/mL penicillin, and 50 μg/mL streptomycin (Thermo Fisher Scientific, Waltham, MA, USA), and in the presence of 10% fetal bovine serum (Biolot, Saint-Petersburg, Russia) in 5% CO2 atmosphere. Control cells were grown in the presence of 1% DMSO where indicated. After formation of a 30–50% monolayer, tested compounds were added to the medium, and the cell culture was monitored for 3 days. […] The measurements were carried out in three parallel experiments.
(§2) The intrinsic cytotoxicity of the four lead compounds (11a–d) was examined using a colorimetric test (Figure 6).

[3] = tested on: HEK293A cells; assay: Intrinsic cytotoxicity, EZ4U colorimetric test, HEK293A; type: cell-based, human; conditions: Figure 6
Description: as §1, §2

[4] = as repeated in Table S1, read-out: IC50
[5] = as repeated in Table S2, read-out: IC50
[6] = as repeated in Table S3, read-out: IC50
[7] = real-time fluorescent test, 1.5 nM TDP1, 50 nM substrate, 26 °C, read-out: IC50, TDP1 activity

IC50 [1, 4] [µM] | IC50 [1, 5] [µM] | IC50 [1, 6] [µM] | IC50 [1, 7] [µM] | IC50, TDP1 activity ([1]; real-time fluorescent test, 1.5 nM TDP1, 50 nM substrate, 26 °C) | Compound | intrinsic cytotoxicity (in words) [2] | intrinsic cytotoxicity (in words) [3]
> 10 | > 10 | > 10 | > 10 | – | CC(=O)c1c(O)c(C)c(O)c2c1OC1=CC(=O)/C(=C(/C)NCCCC(=O)OCC[C@H](C)CCC=C(C)C)C(=O)[C@@]12C [13a, (3R)-3,7-Dimethyloct-6-en-1-yl 4-({1-[(2R,4E)-10-acetyl-11,13-dihydroxy-2,12-dimethyl-3,5-dioxo-8-oxatricyclo[7.4.0.0^2,7]trideca-1(13),6,9,11-tetraen-4-ylidene]ethyl}amino)butanoate] | – | –
0.23 | – | – | – | – | CC(=O)c1c(O)c(C)c(O)c2c1OC1=CC(=O)/C(=C(/C)NCC3=CC[C@H]4C[C@@H]3C4(C)C)C(=O)[C@@]12C [11d, (2R,4E)-10-Acetyl-4-[1-({[(1R,5S)-6,6-dimethylbicyclo[3.1.1]hept-2-en-2-yl]methyl}amino)ethylidene]-11,13-dihydroxy-2,12-dimethyl-8-oxatricyclo[7.4.0.0^2,7]trideca-1(13),6,9,11-tetraene-3,5-dione] | completely suppressed cell growth at 100 μM | completely suppressed cell growth at 100 μM
> 10 | > 10 | > 10 | > 10 | – | CC(=O)c1c(O)c(C)c(O)c2c1OC1=CC(=O)/C(=C(/C)NCCCC(=O)OCCC3=CC[C@H]4C[C@@H]3C4(C)C)C(=O)[C@@]12C [13c, 2-[(1R,5S)-6,6-Dimethylbicyclo[3.1.1]hept-2-en-2-yl]ethyl 4-({1-[(2R,4E)-10-acetyl-11,13-dihydroxy-2,12-dimethyl-3,5-dioxo-8-oxatricyclo[7.4.0.0^2,7]trideca-1(13),6,9,11-tetraen-4-ylidene]ethyl}amino)butanoate] | – | –
> 10 | > 10 | > 10 | > 10 | – | CC(=O)c1c(O)c(C)c(O)c2c1OC1=CC(=O)/C(=C(/C)NCCCC(=O)OCC3=CC[C@H]4C[C@@H]3C4(C)C)C(=O)[C@@]12C [13d, [(1R,5S)-6,6-Dimethylbicyclo[3.1.1]hept-2-en-2-yl]methyl 4-({1-[(2R,4E)-10-acetyl-11,13-dihydroxy-2,12-dimethyl-3,5-dioxo-8-oxatricyclo[7.4.0.0^2,7]trideca-1(13),6,9,11-tetraen-4-ylidene]ethyl}amino)butanoate] | – | –
> 10 | > 10 | > 10 | > 10 | – | C=C(C)[C@@H]1CC=C(COC(=O)CCCN/C(C)=C2\C(=O)C=C3Oc4c(C(C)=O)c(O)c(C)c(O)c4[C@@]3(C)C2=O)CC1 [13e, [(4S)-4-(Prop-1-en-2-yl)cyclohex-1-en-1-yl]methyl 4-({1-[(2R,4E)-10-acetyl-11,13-dihydroxy-2,12-dimethyl-3,5-dioxo-8-oxatricyclo[7.4.0.0^2,7]trideca-1(13),6,9,11-tetraen-4-ylidene]ethyl}amino)butanoate] | – | –
> 10 | > 10 | > 10 | > 10 | did not inhibit the enzyme | C=C(C)[C@@H]1CC=C(CN/C(C)=C2\C(=O)C=C3Oc4c(C(C)=O)c(O)c(C)c(O)c4[C@@]3(C)C2=O)CC1 [11e, (2R,4E)-10-Acetyl-11,13-dihydroxy-2,12-dimethyl-4-[1-({[(4S)-4-(prop-1-en-2-yl)cyclohex-1-en-1-yl]methyl}amino)ethylidene]-8-oxatricyclo[7.4.0.0^2,7]trideca-1(13),6,9,11-tetraene-3,5-dione] | – | –
0.32 | – | – | – | – | CC(=O)c1c(O)c(C)c(O)c2c1OC1=CC(=O)/C(=C(/C)NC/C=C(\C)CCC=C(C)C)C(=O)[C@@]12C [11b, (2R,4E)-10-Acetyl-4-(1-{[(2E)-3,7-dimethylocta-2,6-dien-1-yl]amino}ethylidene)-11,13-dihydroxy-2,12-dimethyl-8-oxatricyclo[7.4.0.0^2,7]trideca-1(13),6,9,11-tetraene-3,5-dione] | completely suppressed cell growth at 100 μM | completely suppressed cell growth at 100 μM
> 10 | > 10 | > 10 | > 10 | – | CC(=O)c1c(O)c(C)c(O)c2c1OC1=CC(=O)/C(=C(/C)NCCCC(=O)OC/C=C(\C)CCC=C(C)C)C(=O)[C@@]12C [13b, (2E)-3,7-Dimethylocta-2,6-dien-1-yl 4-({1-[(2R,4E)-10-acetyl-11,13-dihydroxy-2,12-dimethyl-3,5-dioxo-8-oxatricyclo[7.4.0.0^2,7]trideca-1(13),6,9,11-tetraen-4-ylidene]ethyl}amino)butanoate] | – | –
